# Test results published in patent US10058094B2, “Antimicrobial sanitizer compositions and methods of making the same” (priority 2013, dated 2018).
# How the values were obtained:
# [1] = tested on: Salmonella typhi ATCC 6539; experiment: Chlorine equivalence test; assay type: cell-based; set-up: key to growth of organism, Subculture Series 8 / growth of organism, Subculture Series 9 / growth of organism, Subculture Series 10 / growth of organism, Subculture Series 1 / growth of organism, Subculture Series 2 / growth of organism, Subculture Series 3 / growth of organism, Subculture Series 4 / growth of organism, Subculture Series 5 / growth of organism, Subculture Series 6 / growth of organism, Subculture Series 7: growth of organism (+); no growth of organism (0); conditions: for growth of organism, Subculture Series 1 / growth of organism, Subculture Series 2 / growth of organism, Subculture Series 3 / growth of organism, Subculture Series 4 / growth of organism, Subculture Series 5 / growth of organism, Subculture Series 6 / growth of organism, Subculture Series 7 / growth of organism, Subculture Series 8 / growth of organism, Subculture Series 9 / growth of organism, Subculture Series 10: Salmonella typhi
# Experimental: (§1) The Table 1 sanitizer was tested to determine its efficiency at reducing bacteria on the skin via a chlorine equivalence test. Samples were prepared of Staphylococcus aureus ATCC 6538 (7.6×10^8 colony forming units per mL of text mixture) and Salmonella typhi ATCC 6539 (1.2×10^8 colony forming units per mL of text mixture). The samples were then treated against a NaOCl control at 200 ppm, 100 ppm, and 50 ppm, as well as the sanitizer disclosed herein. Thereafter, ten subculture series were taken.
# [2] = tested on: Staphylococcus aureus ATCC 6538; experiment: Chlorine equivalence test; assay type: cell-based; set-up: key to growth of organism, Subculture Series 8 / growth of organism, Subculture Series 9 / growth of organism, Subculture Series 10 / growth of organism, Subculture Series 1 / growth of organism, Subculture Series 2 / growth of organism, Subculture Series 3 / growth of organism, Subculture Series 4 / growth of organism, Subculture Series 5 / growth of organism, Subculture Series 6 / growth of organism, Subculture Series 7: growth of organism (+); no growth of organism (0); conditions: for growth of organism, Subculture Series 1 / growth of organism, Subculture Series 2 / growth of organism, Subculture Series 3 / growth of organism, Subculture Series 4 / growth of organism, Subculture Series 5 / growth of organism, Subculture Series 6 / growth of organism, Subculture Series 7 / growth of organism, Subculture Series 8 / growth of organism, Subculture Series 9 / growth of organism, Subculture Series 10: Staphylococcus aureus
# Experimental: as §1
structure (smiles),measurement,setting,value
[Na+].[O-]Cl [NaOCl],growth of organisms over the ten subculture series,"[1]; Salmonella typhi ATCC 6539, NaOCl control at 200 ppm, 100 ppm, and 50 ppm, ten subculture series",eventually showed growth of organisms
same,"growth of organism, Subculture Series 1",[1]; concentration 50 ppm,0
same,"growth of organism, Subculture Series 2",[1]; concentration 50 ppm,0
same,"growth of organism, Subculture Series 3",[1]; concentration 50 ppm,+
same,"growth of organism, Subculture Series 4",[1]; concentration 50 ppm,+
same,"growth of organism, Subculture Series 5",[1]; concentration 50 ppm,+
same,"growth of organism, Subculture Series 6",[1]; concentration 50 ppm,+
same,"growth of organism, Subculture Series 7",[1]; concentration 50 ppm,+
same,"growth of organism, Subculture Series 8",[1]; concentration 50 ppm,+
same,"growth of organism, Subculture Series 9",[1]; concentration 50 ppm,+
same,"growth of organism, Subculture Series 10",[1]; concentration 50 ppm,+
same,"growth of organism, Subculture Series 1",[1]; concentration 100 ppm,0
same,"growth of organism, Subculture Series 2",[1]; concentration 100 ppm,0
same,"growth of organism, Subculture Series 3",[1]; concentration 100 ppm,0
same,"growth of organism, Subculture Series 4",[1]; concentration 100 ppm,+
same,"growth of organism, Subculture Series 5",[1]; concentration 100 ppm,+
same,"growth of organism, Subculture Series 6",[1]; concentration 100 ppm,+
same,"growth of organism, Subculture Series 7",[1]; concentration 100 ppm,+
same,"growth of organism, Subculture Series 8",[1]; concentration 100 ppm,+
same,"growth of organism, Subculture Series 9",[1]; concentration 100 ppm,+
same,"growth of organism, Subculture Series 10",[1]; concentration 100 ppm,+
same,"growth of organism, Subculture Series 1",[1]; concentration 200 ppm,0
same,"growth of organism, Subculture Series 2",[1]; concentration 200 ppm,0
same,"growth of organism, Subculture Series 3",[1]; concentration 200 ppm,0
same,"growth of organism, Subculture Series 4",[1]; concentration 200 ppm,0
same,"growth of organism, Subculture Series 5",[1]; concentration 200 ppm,0
same,"growth of organism, Subculture Series 6",[1]; concentration 200 ppm,0
same,"growth of organism, Subculture Series 7",[1]; concentration 200 ppm,+
same,"growth of organism, Subculture Series 8",[1]; concentration 200 ppm,+
same,"growth of organism, Subculture Series 9",[1]; concentration 200 ppm,+
same,"growth of organism, Subculture Series 10",[1]; concentration 200 ppm,+
same,growth of organisms over the ten subculture series,"[2]; Staphylococcus aureus ATCC 6538, NaOCl control at 200 ppm, 100 ppm, and 50 ppm, ten subculture series",eventually showed growth of organisms
same,"growth of organism, Subculture Series 1",[2]; concentration 50 ppm,0
same,"growth of organism, Subculture Series 2",[2]; concentration 50 ppm,+
same,"growth of organism, Subculture Series 3",[2]; concentration 50 ppm,+
same,"growth of organism, Subculture Series 4",[2]; concentration 50 ppm,+
same,"growth of organism, Subculture Series 5",[2]; concentration 50 ppm,+
same,"growth of organism, Subculture Series 6",[2]; concentration 50 ppm,+
same,"growth of organism, Subculture Series 7",[2]; concentration 50 ppm,+
same,"growth of organism, Subculture Series 8",[2]; concentration 50 ppm,+
same,"growth of organism, Subculture Series 9",[2]; concentration 50 ppm,+
same,"growth of organism, Subculture Series 10",[2]; concentration 50 ppm,+
same,"growth of organism, Subculture Series 1",[2]; concentration 100 ppm,0
same,"growth of organism, Subculture Series 2",[2]; concentration 100 ppm,0
same,"growth of organism, Subculture Series 3",[2]; concentration 100 ppm,+
same,"growth of organism, Subculture Series 4",[2]; concentration 100 ppm,+
same,"growth of organism, Subculture Series 5",[2]; concentration 100 ppm,+
same,"growth of organism, Subculture Series 6",[2]; concentration 100 ppm,+
same,"growth of organism, Subculture Series 7",[2]; concentration 100 ppm,+
same,"growth of organism, Subculture Series 8",[2]; concentration 100 ppm,+
same,"growth of organism, Subculture Series 9",[2]; concentration 100 ppm,+
same,"growth of organism, Subculture Series 10",[2]; concentration 100 ppm,+
same,"growth of organism, Subculture Series 1",[2]; concentration 200 pm,0
same,"growth of organism, Subculture Series 3",[2]; concentration 200 pm,0
same,"growth of organism, Subculture Series 8",[2]; concentration 200 pm,+
same,"growth of organism, Subculture Series 10",[2]; concentration 200 pm,+
same,"growth of organism, Subculture Series 2",[2]; concentration 200 ppm,0
same,"growth of organism, Subculture Series 4",[2]; concentration 200 ppm,0
same,"growth of organism, Subculture Series 5",[2]; concentration 200 ppm,0
same,"growth of organism, Subculture Series 6",[2]; concentration 200 ppm,+
same,"growth of organism, Subculture Series 7",[2]; concentration 200 ppm,+
same,"growth of organism, Subculture Series 9",[2]; concentration 200 ppm,+
